Data set [1] deals with vomiting induced by cis-platinum. Briefly: Anti-emetic activity: inhibition of vomiting induced by cis-platinum in ferrets. As to conditions: 30 minutes before cis-platinum 30 mg/kg i.v., ferrets observed six hours. The format is in vivo, ferret. Here is the method: Inhibition induced by cis-platinum is evaluated in ferrets using a modification of the protocol described by Barnes et al. (J. M. Barnes, N. M. Barnes, B. Costall, R. J. Naylor, F. D. Tattersall, Neuropharmacology, 27[8], 783 [1988]). Thus, albino ferrets or European polecats of both sexes weighing between 0.5 kg and 1.5 kg are put under anesthesia with pentobarbitone (30-40 mg/kg i.p.) and a polyethylene injection tube is inserted into the left jugular vein. Two days later, the compounds being tested are administered i.v. 30 minutes before cis-platinum (30 mg/kg i.v.). The animals are observed for six hours and the number of vomitings is recorded. A control group is included for each experiment.

The next data set deals with gastric acid secretion. Description: Gastric anti-secretion activity, pylorus-ligated rat (Shay method). Format: in vivo. As to conditions: intraduodenal, male Sprague Dawley rats, pylorus ligature, 4 hours. The procedure: The gastric anti-secretion activity of the compounds of the invention was tested according to the method described by Shay et al. (H. Shay, D. C. Sun, M. Gruenstein, Gastroenterology, 26, 906 [1954]). Thus, male Sprague Dawley rats weighing around 200 g with free access to water are made to fast 24 hours before the experiments. Ligatures are made on the pylora under ether anesthesia and the medications to be tested are simultaneously administered either by the intraperitoneal route (i.p.) or by intraduodenal route (i.d.). The abdomen is closed again and the animals are sacrificed after four hours. The gastric secretion is recovered and centrifuged at 1,500 g for 15 minutes; the volume of the supernatant is measured and the acidity is determined by automatic titration of 0.05 N sodium hydroxide. A control group is included for each experiment.
The dose necessery for 50% inhibition (ED50) of the acid secretion (X concentration of hydrochloric acid by volume) is calculated using the method described by Litchfield and Wilcoxon (J. T. Litchfield, F. A. Wilcoxon, J. Pharmacol., 96, 99 [1949]). The results obtained for compounds pounds representative of the invention are given in Table 3 and compared with the clinically used reference compounds: Pirenzepine (anti-cholinergic), Ranitidine (antagonist of histaminergic H2 receptors) and Omeprazole (proton pump inhibitor).

The test system of the next data set is intestinal transit. Briefly: Effect on intestinal transit (charcoal meal) in rats. As to conditions: 30 minutes before charcoal, sacrificed after 15 minutes. Format: in vivo, rat. Here is the method:
A compound of the invention was tested to determine its effect on the intestinal transit according to the method described by A. F. Green (Br. J. Pharmacol., 14, 26-34 [1959]). To male Sprague Dawley rats weighing approximately 200 g before being made to fast, there was administered (p.o.) a meal comprised of charcoal (10 g) and gum arabic (2.5 g) dissolved in 100 ml of distilled water. The animals were sacrificed after 15 minutes and the charcoal transit time was measured.
The product to be tested was administered (s.c.) 30 minutes before the administration of the charcoal.

For another data set, the system named is gastric emptying. Briefly: Effect on gastric emptying (phenol red meal) in rats. As to conditions: sacrificed 15 minutes after phenol red meal. Format: in vivo, rat. The procedure:
A compound of the invention was tested for its effect on gastric emptying according to the method described by C. Scarpignato et al. (Arch. Int. Pharmacodyn., 246, 286-294 [1980]). Thus, 1.5 ml of a 1.5% methyl cellulose solution comprising phenol red (0.5 mg/ml) was administered orally to Sprague Dawley rats weighing approximately 200 g and previously subjected to fasting. The animals were sacrificed after 15 minutes and the pylora and the esophagi were tied off. The contents of the stomachs were collected in a teflon beaker containing a solution of soda (100 ml at 0.1 N) and the mixture was homogenized. The proteins were precipitated by addition of 0.5 ml of a 20% aqueous solution of trifluoroacetic acid to a 5 ml portion of homogenate. After centrifuging, the part of the solution rising to the top was separated and added to 4.5 ml of an aqueous solution of soda at 0.5 N and the phenol red content was determined by using a spectrophotometer at a wavelength of 560 nm.
The compound to be tested was administered (s.c.) 15 minutes […] the administration of phenol red.

The target in another data set is T1, 5-HT1A receptor (Rattus norvegicus, UniProt P19327).
T1 construct: Rat cerebral cortex membranes (10 mg by weight, moistened, per ml) are incubated with [3H]8-OH-DPAT (1 nM); from tissue; host or cells: rat cerebral cortex membranes (male Sprague Dawley rats)
T1 sequence (P19327 1-422): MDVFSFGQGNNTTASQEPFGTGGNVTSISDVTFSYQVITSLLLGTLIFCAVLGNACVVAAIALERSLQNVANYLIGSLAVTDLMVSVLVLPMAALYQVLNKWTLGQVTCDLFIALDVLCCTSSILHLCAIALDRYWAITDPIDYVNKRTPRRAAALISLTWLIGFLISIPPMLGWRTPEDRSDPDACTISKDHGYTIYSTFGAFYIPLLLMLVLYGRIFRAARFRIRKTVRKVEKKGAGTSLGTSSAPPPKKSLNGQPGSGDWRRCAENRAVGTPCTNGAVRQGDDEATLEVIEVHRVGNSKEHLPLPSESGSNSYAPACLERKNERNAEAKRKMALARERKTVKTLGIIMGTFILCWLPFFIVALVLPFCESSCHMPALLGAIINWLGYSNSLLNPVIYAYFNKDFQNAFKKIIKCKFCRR
Description: Affinity for the 5-HT1A receptor: inhibition of [3H]8-OH-DPAT binding to rat cerebral cortex membranes. To be noted: [3H]8-OH-DPAT 1 nM, 30 min at 25 deg. C.

This note sets out measurements from patent US6670400B1, “Phenoxyethylamine derivatives having high affinity for the 5-HT1A receptor, preparation thereof, use thereof as drugs, and pharmaceutical compositions containing said derivatives” (Societe de Conseils de Recherches et D'Applications …, priority 1995, dated 2003).

Counter-ions that a name gives are not always drawn.

Description for 5-HT1A receptor: The affinity of the compounds for the 5-HT1A serotonergic receptors is determined by measuring the inhibition of [3H]8-hydroxy-2 (di-n-propylamino) tetralin([3H]8-OH-DPAT) connected with the cerebral cortex of the rat according to the method of Perutka et al. (J. Neurochem., 47,529 [1986]).
Cerebral cortices of male Sprague Dawley rats are homogenized in 50 mM Tris-HCl, pH—7.4, and centrifuged at 40,000 g for 10 min. at 4 degrees C. Pellets are put into suspension in the same buffer and incubated for 10 min. at 37 degrees C. and the homogenates are again centrifuged at 40,000 g for 10 min. at 4 degrees C.
Competitive inhibition tests of the bond of [3H]8-OH-DAPT are performed three times with unmarked competitors with concentrations ranging between 100 pM and 100 μM. Rat cerebral cortex membranes (10 mg by weight, moistened, per ml) are incubated with [3H]8-OH-DPAT (1 nM) for 30 min. at 25 deg. C. in Tris-HCl 50 mM, pH 7.4 comprising 4 mM of CaCl2, 10 μM of pargylin and 0.1% ascorbic acid.
The bonded [3H]8-OH-DPAT is separated from the free [3H]8-OH-DPAT by immediate filtration by means of Whatman GF/B fiberglass filters using a Brandel cell recoverer. The filters [filtrates?] are washed three times with the same buffer at 0-4 deg. C. and their radioactivity is determined by means of a liquid scintillation spectrometer.
The specific bond is obtained by subtracting the given bond in the presence of 1 μM of 8-OH-DPAT from the total bond. The bond characteristics are analyzed by interactive analysis of the nonlinear regression by computer using the Ligand program (Munson and Rodbard, Anal. Biochem., 107, 220 [1980]).

In the case of `Cc1nccn1CC1CCc2c(c3ccccc3n2C)C1=O` (stereo not drawn) [Ondansetron, reference compound], in data set [1] (0.5 mg/kg iv), the “Percent Inhibition (vomiting)” value worked out at 62%.

Consider `CNC(=O)c1ccccc1OCCNCCCCNC(=O)c1ccccc1` [Compound No. 18], for which the “ED50 (dose necessary for 50% inhibition of the acid secretion)” value in the data set with gastric acid secretion turned out to be 3.2 mg/kg i.d. In data set [1] (1.0 mg/kg iv), the “Percent Inhibition (vomiting)” value was 62%. Further, the entries for the “Charcoal Transit Time Compared to Control” value with intestinal transit (0.3 mg/kg s.c.) and with intestinal transit (1.0 mg/kg s.c.) were “+16%” and “+20%”, respectively. Moreover, the results for the “Effect on Gastric Emptying Time Compared to Control” value with gastric emptying (0.3 mg/kg s.c.), in the data set with gastric emptying (1.0 mg/kg s.c.) and in the data set on gastric emptying (3.0 mg/kg s.c.) were “+8%”, “+18%” and “+26%”, respectively.

In the case of `COc1ccccc1OCCNCCCCNC(=O)c1cccc(I)c1` (as salt: salt) [compound 30], the melting point (commonly the temperature of the solid-liquid transition) was in the range of 121 to 121.5 °C.

On to `COc1ccccc1OCCNCCCCNC(=O)C1CCCCCC1` [compound 46, N[4-{2-(2-methoxyphenoxy)ethyl}aminobutyl]cycloheptylamide], for which affinity on 5-HT1A receptor was put at a Ki of 0.094 nM.

As to `COc1ccc2[nH]c([S+]([O-])Cc3ncc(C)c(OC)c3C)nc2c1` (stereo not drawn) [Omeprazole, reference compound], in the data set on gastric acid secretion, the “ED50 (dose necessary for 50% inhibition of the acid secretion)” value was determined as 4.6 mg/kg i.d.

Compound `COc1ccccc1OCCNCCCCNC(=O)CC(C)(C)C` (as salt: fumarate) [compound 33] displayed a melting point of 130 to 132 °C.

As to `COc1ccccc1OCCNCCCCNC(=O)CC1CCCC1` (as salt: fumarate) [compound 59], the melting point lay within 118 to 119 °C.

For `CCOc1ccccc1OCCNCCCCNC(=O)C(C)(C)C` (as salt: fumarate) [compound 64], the melting point was 131.5 to 133 °C.

For `CNC(=C[N+](=O)[O-])NCCSCc1ccc(CN(C)C)o1` [Ranitidine, reference compound], in the data set on gastric acid secretion, the “ED50 (dose necessary for 50% inhibition of the acid secretion)” value is 22 mg/kg i.d.

`COc1cccc(C(=O)NCCCCNCCOc2ccccc2OC)c1` (as salt: fumarate) [compound 14]: the melting point fell in the range of 68 to 70 °C.

In the case of `COc1ccccc1OCCNCCCCNC(=O)C12CC3CC(CC(C3)C1)C2` [Compound No. 2, N-[4-{-2-(2-Methoxyphenoxy)ethyl}aminobutyl]-1-adamantamide], on 5-HT1A receptor, the affinity, expressed as Ki, was 0.1 nM. Also, in the data set with gastric acid secretion, the “ED50 (dose necessary for 50% inhibition of the acid secretion)” value was 3.6 mg/kg i.d.

As to `COc1ccccc1OCCNCCCCNC(=O)c1cccc(I)c1` [compound 30], affinity on 5-HT1A receptor was put at a Ki of 0.44 nM.

For `COc1ccccc1OCCNCCCCNC(=O)CC(C)(C)C` [compound 33], affinity at 5-HT1A receptor was put at a Ki of 0.33 nM.

For the compound `CCOc1ccccc1OCCNCCCCNC(=O)C(C)(C)C` [compound 64], on 5-HT1A receptor, the affinity corresponds to a Ki of 0.77 nM.

As to `COc1ccccc1OCCNCCCCNC(=O)c1ccccn1` (as salt: salt) [compound 3], the melting point fell in the range of 152 to 154 °C.

With `CN1CCN(CC(=O)N2c3ccccc3C(=O)Nc3cccnc32)CC1` [Pirenzepine, reference compound], the “ED50 (dose necessary for 50% inhibition of the acid secretion)” value in the data set with gastric acid secretion is 14 mg/kg i.d.

On to `O=C(NCCCCNCCOc1ccccc1O)c1ccccc1` [compound 20, N[4-{2-(2-hydroxyphenoxy)ethyl}aminobutyl]benzamide], for which the affinity at 5-HT1A receptor corresponds to a Ki of 0.23 nM. For the same compound, the “ED50 (dose necessary for 50% inhibition of the acid secretion)” value with gastric acid secretion worked out at 3.1 mg/kg i.d.

With `COc1ccccc1OCCNCCCCNC(=O)c1ccc(F)cc1` (as salt: salt) [compound 23], the melting point fell in the range of 119 to 120.5 °C.

`COc1ccccc1OCCNCCCCNC(=O)C1CC2CCC1C2` (stereo not drawn) [compound 50, N[4-{2-(2-methoxyphenoxy)ethyl}aminobutyl]2-bicyclo[2,2,1]heptylamide]: affinity on 5-HT1A receptor was put at a Ki of 0.071 nM.

Take `COc1ccccc1OCCNCCCCNC(=O)C1(C)CCCCC1` [compound 45]: on 5-HT1A receptor, the Ki – broadly, a measure of affinity in units of concentration, obtained from inhibition or displacement – came out at 0.14 nM.

At 5-HT1A receptor, `COc1ccccc1OCCNCCCCNC(=O)c1ccccc1` [Compound No. 1, N-[4-{2-(2-Methoxyphenoxy)ethyl}aminobutyl]benzamide] showed a Ki of 0.2 nM. The “ED50 (dose necessary for 50% inhibition of the acid secretion)” value with gastric acid secretion is given as 3.7 mg/kg i.d. Also, the “Percent Inhibition (vomiting)” value in data set [1] (1.0 mg/kg iv) is recorded as 40%.

In the case of `COc1ccccc1OCCNCCCCNC(=O)C1CC2CCC1C2` (stereo not drawn) (as salt: fumarate) [compound 50, N[4-{2-(2-methoxyphenoxy)ethyl}aminobutyl]2-bicyclo[2,2,1]heptylamide], the melting point was 130 to 131 °C.

`COc1ccccc1OCCNCCCCNC(=O)C1CCCCCC1` (as salt: fumarate) [compound 46, N[4-{2-(2-methoxyphenoxy)ethyl}aminobutyl]cycloheptylamide] had a melting point of 125 to 126 °C.

In turn, `CSc1ccccc1OCCNCCCCNC(=O)c1ccccc1` [compound 11] showed a Ki at 5-HT1A receptor of 0.71 nM.

With `CCN(CC)CCNC(=O)c1cc(Cl)c(N)cc1OC` [Metoclopramide, reference compound], the “Percent Inhibition (vomiting)” value in data set [1] (1.0 mg/kg iv) turned out to be 15%.

Compound `COc1ccccc1OCCNCCCCNC(=O)C1(C)CCCCC1` (as salt: fumarate) [compound 45] yielded a melting point of 120 to 122 °C.

`COc1ccccc1OCCNCCCCNC(=O)C1CCCCC1` [compound 34, N[4-{2-(2-methoxyphenoxy)ethyl}aminobutyl]cyclohexylamide] registered a Ki at 5-HT1A receptor of 0.087 nM.

As for `COc1ccccc1OCCNCCCCNC(=O)CC1CCCC1` [compound 59], the affinity on 5-HT1A receptor, expressed as Ki, was 0.65 nM.

Regarding `COc1ccccc1OCCNCCCCNC(=O)c1ccc(F)cc1` [compound 23], at 5-HT1A receptor, the Ki is 0.33 nM.

On 5-HT1A receptor, `COc1cccc(C(=O)NCCCCNCCOc2ccccc2OC)c1` [compound 14] registered a Ki of 1.6 nM.

In turn, `COc1ccccc1OCCNCCCCNC(=O)c1ccccn1` [compound 3] showed a Ki at 5-HT1A receptor of 1.4 nM.

Compound `COc1ccccc1OCCNCCCCNC(=O)C1CCCCC1` (as salt: fumarate) [compound 34, N[4-{2-(2-methoxyphenoxy)ethyl}aminobutyl]cyclohexylamide] came in with a melting point of 134 to 136 °C.
